Tests used:
[1] = tested on: C57BL/6 mice with angiotensin II-induced diastolic heart failure; assay: Picrosirius-red collagen staining of heart sections, angiotensin II model (two weeks); type: in vivo; settings: i.p. every other day, Bufalin 0.5, Lycorine 4.5, Anisomycin 10, Gitoxigenin 0.01 mg/kg, day 14
Procedure: Diastolic heart failure (HF) was induced in C57BL/6 mice via implantation of angiotensin II filled minipumps. Male C57BL/6 mice 8-10 weeks old were used in the present invention being based on a C57BL/6N-background (Charles River, Germany).
For implantation of angiotension II filled minipumps, Angiotensin-II is applied by osmotic minipumps for two weeks (Alzet® [Modell 1001]). The recommended dose amounts for 1.5 or 3.0 mg/kg/per day. The minipumps are filled under sterile conditions with Angiotensin-II or with isotonic saline solution functioning as a control substance. Implantation takes place under intraperitoneal injection anaesthesia. […] Mice are then fixed on a pre-heated operating table and are provided with Bepanthen eye salve against drying out of the conjunctives. The operating field is located in the right caudal third of the back. It is shaved and desinfected with Braunol, afterwards it is coated with a 0.5% Lidocain-solution. After a period of one hour implantation can be started. The skin is cut through vertical to the back line, preferably the length is one centimeter. A pocket from the cutting line to cranial is subcutaneously formed. Herein, the minipumps are injected. Afterwards, the skin is then closed with a 5-0 Prolene string with interrupted sutures. Then, the closed wound is coated again with Braunol. For preventing hypothermia mice wake up in their cages, which are placed up to one-third on a terrarium-warming mat with regulated temperatures of 37°. Surgery amounts for 5 minutes/per animal.
Next, the natural compounds (Bufalin, Gitoxigenin, Lycorine, and Anisomycin) were injected intraperitoneally every other day during two consecutive weeks starting two days after the operation (see FIG. 6). DMSO was also injected into C57BL/6 mice with induced cardiac remodeling as a control. Cardiac function was assessed echocardiographically and fibrosis-development via collagen staining with picosirius-red in histological sections of the hearts (Example 4).
Further, fourteen days after the operation, histological sections of the hearts were stained for collagen using picrosirius-red (n=3-5 per group) after treatment with said compounds (Bufalin: 0.5 mg/kg, Lycorine 4.5 mg/kg, Anisomycin: 10 mg/kg and Gitoxigenin: 0.01 mg/kg).

[2] = tested on: C57BL/6N mice with angiotensin II-induced diastolic heart failure; assay: Picrosirius-red collagen staining of heart sections, therapeutic model (eight weeks); type: in vivo; settings: therapeutic: i.p. every other day from week 2 of angiotensin II; week 8
Procedure: (§1) Diastolic heart failure (HF) was induced in C57BL/6N mice via implantation of angiotensin II filled minipumps (see Example 3). In difference to Example 3, C57BL/6N mice were infused with 3 mg/kg/day angiotensin II by subcutaneously implanted minipumps for eight weeks.
(§2) Next, Bufalin or Lycorine (dissolved in DMSO) or the solvent DMSO alone (as control) were injected intraperitoneally (i.p) every other day until the endpoint, starting two weeks after start of angiotensin II-infusion (see FIG. 11).
Additionally, eight weeks after the operation, histological sections of the hearts were stained for collagen using picrosirius-red (n=7-12 per group) after treatment with Bufalin or Lycorine.

[3] = tested on: C57BL/6N mice with angiotensin II-induced diastolic heart failure; assay: Hemodynamic measurement (MILLAR), therapeutic model; type: in vivo; settings: therapeutic: Bufalin 0.5 mg/kg, Lycorine 4.5 mg/kg; week 8
Procedure: as §1, §2
Diastolic HF was induced in C57BL/6 mice and Bufalin or Lycorine were injected as indicated in Example 5. Eight weeks after the operation, hemodynamic measurements of the mice were assessed (n=6-7 per group) by treating the mice with said compounds (Bufalin: 0.5 mg/kg, Lycorine 4.5 mg/kg).

[4] = tested on: C57BL/6N mice with angiotensin II-induced diastolic heart failure; assay: Tissue Doppler Imaging, therapeutic model; type: in vivo; settings: therapeutic: Bufalin 0.5 mg/kg; week 8; vs AngII solvent control
Procedure: as §1, §2
Diastolic HF was induced in C57BL/6 mice and Bufalin were injected as indicated in Example 5. Eight weeks after the operation, cardiac function of the mice was assessed echocardiographically (n=3-6 per group) by treating the mice with said compounds (Bufalin: 0.5 mg/kg)
Echocardiographic measurements were performed using Tissue Doppler Imaging (TDI), which refers to a medical ultrasound technology mainly used in Echocardiography that measures the velocity of the heart muscle or myocardium through the phases of one or more heartbeats by the Doppler effect (frequency shift) of the reflected ultrasound (see FIG. 14).

kidney and liver [5] = assay: Kidney and liver histology (HE, PAS), angiotensin II model, fourteen days; type: in vivo, mice; settings: Bufalin 0.5, Lycorine 4.5 mg/kg; fourteen days after the operation
Procedure: (§3) Again, HF was induced in mice (Example 3) and Bufalin (0.5 mg/kg) as well as Lycorine (4.5 mg/kg) were injected as indicated in Example 3. Fourteen days after the operation, kidneys and livers were subjected to histological assessment via Hematoxylin and Eosin (HE) and Periodic acid-Schiff (PAS) stain (n=2-4 per group) (see FIGS. 28A and B).

kidney and liver [6] = assay: Kidney and liver histology (HE, PAS), therapeutic model, eight weeks; type: in vivo, mice; settings: therapeutic approach; Bufalin 0.5, Lycorine 4.5 mg/kg; eight weeks after the operation
Procedure: as §3, with “HF” for “Again, HF”, “5)” for “3)”, “5. Eight weeks” for “3. Fourteen days”, “(n=4” for “(n=2-4”, “group).” for “group) (see FIGS. 28A and B).”

[7] = Myocardial and plasma concentrations, LC and QTOF-MS; type: in vivo, mice; settings: 9 minutes after injection; Bufalin 0.5, Lycorine 4.5 mg/kg
Procedure: Plasma and hearts of C57BL/6N mice were harvested 9 minutes after injection with natural substances Bufalin (0.5 mg/kg) or Lycorine (4.5 mg/kg) (dissolved in DMSO). After extraction of the substances, Bufalin and Lycorine were quantified by liquid chromatography (LC) and quadrupole time-of-flight mass spectrometry (QTOF-MS) (see FIG. 30).

[8] = tested on: rat renal fibroblast cell line NRK49F; assay: Proliferation of rat renal fibroblast cell line NRK49F, BrdU-ELISA; type: cell-based; settings: 24 h; for proliferation of renal fibroblasts (NRK49F): Lycorine 1, 5, 10 μM, Bufalin 0.1, 1, 10 μM
Procedure: (§4) Cells of the rat renal fibroblast cell line NRK49F and primary human pulmonary fibroblasts (HPFs) were treated with Lycorine (1 μM, 5 μM and 10 μM) or Bufalin (0.1 μM, 1 μM, 10 μM) for 24 h and proliferation of respective fibroblasts was measured by BrdU-ELISA (see FIG. 39).

[9] = tested on: primary human pulmonary fibroblasts (HPFs); assay: Proliferation of primary human pulmonary fibroblasts, BrdU-ELISA; type: cell-based; settings: 24 h; for proliferation of pulmonary fibroblasts (HPFs): Lycorine 1, 5, 10 μM, Bufalin 0.1, 1, 10 μM
Procedure: as §4

SMILES	collagen deposition in heart sections (picrosirius-stained areas) [1]	collagen deposition in heart sections (picrosirius-stained areas) [2]	end-diastolic pressure-volume relationship (EDPVR) [3]	velocity of tissue motion in diastole (E′) [4]	kidney and liver morphology (HE, PAS) (kidney and liver [5])	kidney and liver morphology (HE, PAS) (kidney and liver [6])	levels in the myocardium compared to the plasma [7]	proliferation of renal fibroblasts (NRK49F) [8]	most effective amount (pulmonary fibroblasts) [9] [µM]	proliferation of pulmonary fibroblasts (HPFs) [9]	most effective amount (renal fibroblasts) [8] [µM]
C[C@]12CC[C@H](O)C[C@H]1CC[C@@H]1[C@@H]2CC[C@]2(C)[C@@H](C3=CC(=O)OC3)[C@@H](O)C[C@]12O [Gitoxigenin]	prominent reduction of collagen deposition										
C[C@]12CC[C@H](O)C[C@H]1CC[C@@H]1[C@@H]2CC[C@]2(C)[C@@H](c3ccc(=O)oc3)CC[C@]12O [Bufalin]	prominent reduction of collagen deposition	reduction of collagen deposition	significant reduction	recovers the velocity of tissue motion in diastole	does not induce necrosis, inflammation or any morphological changes	does not induce necrosis, inflammation or any morphological changes	higher levels in (A) the myocardium as compared to (B) the plasma	significantly inhibits only proliferation of pulmonary fibroblasts	10	significantly inhibits	
O[C@H]1[C@H]2c3cc4c(cc3CN3CCC(=C[C@@H]1O)[C@H]23)OCO4 [Lycorine]	prominent reduction of collagen deposition	reduction of collagen deposition	significant reduction		does not induce necrosis, inflammation or any morphological changes	does not induce necrosis, inflammation or any morphological changes	higher levels in (A) the myocardium as compared to (B) the plasma	significantly inhibits proliferation	10	significantly inhibits proliferation	10
COc1ccc(C[C@H]2NC[C@H](O)[C@H]2OC(C)=O)cc1 [Anisomycin]	prominent reduction of collagen deposition										

From patent US11185539B2 (priority 2017, dated 2021)
